Here are results for 7 molecules from US20030196279A1, “Single-bath biopreparation and dyeing of textiles” (Novozymes North America, Inc., priority 1999, published 2003).

The test system of one test is pectate lyase. Kind of test: Compatibility of pectate lyase with dyes, vibration viscometry assay on polygalacturonic acid. Format: biochemical. The following applies: 0.5 ml of 10 g/l dye solution added; pH 8.5, 40° C., 20 minutes; relative to none-dye control. How it is done:
An analytical assay is used in compatibility tests. Prior to this assay, 5 mM phosphate buffer pH 8.5 is made up using KH2PO4 and NaOH (both from Fisher). The other solutions are constituted as follows:
i) The substrate is polygalacturonic acid in sodium salt form (from SIGMA). The substrate solution is made up to 11.436 g/l by dissolving polygalacturonic acid sodium salt in the phosphate buffer.
ii) Dye solutions are made up to 10 g/l by dissolving a commercial dye in the phosphate buffer.
iii) An internal standard pectate lyase (2600 APSU/g) is used. The enzyme solution is made up to 500 APSU/ml by dissolving the pectate lyase in the phosphate buffer.
During the assay, 3.5 ml substrate solution was pipetted into each tube. 0.5 ml of a dye solution or buffer was added and mixed well. The tube was then preheated in 40° C. water bath for 5 minutes. A total of 0.5 ml solution, including enzyme, and buffer was added using Hamilton Micro Lab 900. In dye compatibility, the 0.5 ml solution was made up with 40 μl enzyme solution and 460 μl buffer. For standard curve, 0-90 μl enzyme solution was used. Once enzyme was added, the solution was mixed immediately and the tube incubated at 40° C. for 20 minutes. The viscosity was then measured after putting the tube on a vibration viscometer (Sofraser Viscometer-mivi 3000, from France) for 10 seconds. At all conditions, experiments were performed in duplicate.
A standard linear curve was obtained within 0-5 APSU/ml pectate lyase concentration range (0-45 μl enzyme solution added). The correlation is given in the equation below: […]
Since the Y was obtained from experimental measurements, X was then calculated using the above equation. The enzyme activity with the addition of dye was compared to the activity of none-dye control. The relative activity is illustrated in Table 13. […] Since the chromophore structure of reactive dye shares similar chemical structure of direct dye and other dye classes, similar compatibility results may be expected for other dye classes. […] Since commercial dyes are not pure and often contains salt, the positive impact may be due to the salt in dye formula.

In test [1] the test system is pectate lyase activity on woven cotton fabric. The following applies: Example 5; 2000 APSU/kg pectate lyase, pH 9.2, 60° C., 30 minutes, woven fabric 480U.
Procedure: A buffer containing 2 mM borate at pH 9.2 and 1 g/l nonionic surfactant Tergitol 15-S-12 was prepared. The solution was transferred to Labomat beakers (Werner-Mathis USA, Inc., NC). […] Swatches of a woven fabric (type 480U from Testfabrics, Inc., PA) were then added to the beakers so that the liquor-to-fabric ratio was 10 ml/g. After the temperature was raised to 60° C., 2000 APSU/kg fiber of pectate lyase were added and the fabric was incubated at 60° C. for 30 minutes. The swatches were then removed and rinsed twice in hot and cold water.
The amount of residual pectic substances remaining on the fabric was determined by measuring the color strength of the fabric dyed with Ruthenium red, a dye with an affinity for pectic substances. For the Ruthenium red assay, a fresh solution was prepared containing 0.2 g/l Ruthenium red, 1.0 g/l ammonium chloride, 2.5 ml/l 28% ammonium hydroxide solution, 1.0 g/l Silwet L-77 (Wetter, Polyalkyleneoxide modified heptamethyltrisiloxane), and 1.1 g/l Tergitol 15-S-12. The solution was used at a ratio of 100 ml solution/gram of fabric. Fabric swatches were dyed at room temperature in Labomat beakers for 15 minutes and then rinsed with cold water. After drying, the color of swatches was assessed by measuring the reflectance of the Ruthenium red-dyed fabric on Macbeth color eye at 540 nm, and the dye on the fabric was calculated as K/S value.
Test [2] is described as follows: Wetting test, water drop test, AATCC Test Method 79-1992. The following applies: Example 10; added to pectinase biopreparation and dyeing solution. How it is done: The wetting test was performed using water according to AATCC Test Method 79-1992. Five measurements were taken from each of three areas along the fabric in this water drop test. Color measurements were made using reflectance Macbeth Color Eye System with Optiview 1.7 software, using 10° standard observer and illuminant D65, which represents average daylight over range of 380-830 nm. Ten measurements at different positions of fabric tube were carried out.

In the case of `C=C(Br)C(=O)Nc1ccc(N=Nc2c(NC)ccc3cc(S(=O)(=O)[O-])cc(O)c23)c(S(=O)(=O)[O-])c1.[Na+].[Na+]` [Lanasol Red 5B], the “% Activity (relative pectate lyase activity)” value with pectate lyase is recorded as 117.6%.

With `Nc1c(N=Nc2ccc(S(=O)(=O)CCOS(=O)(=O)[O-])cc2)c(S(=O)(=O)[O-])cc2cc(S(=O)(=O)[O-])c(N=Nc3ccc(S(=O)(=O)CCOS(=O)(=O)[O-])cc3)c(O)c12.[Na+].[Na+].[Na+].[Na+]` [Remazol Black B], the “% Activity (relative pectate lyase activity)” value in the test on pectate lyase is recorded as 114.8%. On the same count and under the same terms, then `Nc1c(S(=O)(=O)[O-])cc(Nc2cccc(S(=O)(=O)CCOS(=O)(=O)[O-])c2)c2c1C(=O)c1ccccc1C2=O.[Na+].[Na+]` [Remazol Br. Blue R Spec.], with 200.9%. On the same count and under the same terms, then `CC(=O)Nc1ccc2cc(S(=O)(=O)O)c(N=Nc3ccc(S(=O)(=O)CCOS(=O)(=O)O)cc3)c(O)c2c1.[Na]` [Remazol Br. Orange 3R], with 110.1%. As for `O=S(=O)([O-])[O-].[Na+].[Na+]` [sodium sulfate], the “sodium sulfate concentration at which a minimum amount of pectic residue was left on the fabric” value in test [1] is “about 20 g/l”. As for `O=P(O)(O)OP(=O)(O)OP(=O)(O)O` [sodium tripoly phosphate (STPP), sodium tripoly phosphate], the “wettability (wetting time in the drop test, FIG. 2)” value in test [2] was “better wettability”. Still for that read-out and setting: to cellulase belongs “better wettability”.
